Results from publication PMC11277476, “Synthesis and Biological Evaluation of Novel 2-Aroyl Benzofuran-Based Hydroxamic Acids as Antimicrotubule Agents” (International Journal of Molecular Sciences, 2024).
Where two headings read alike, the source gives them in different places.

Key:
human recombinant HDAC6 = biological target: T1, human recombinant HDAC6 (Homo sapiens, UniProt Q9UBN7); assay: HDAC isoform inhibition, fluorogenic substrate, HDAC6; assay type: biochemical; settings: mean ± SE; for IC50: read-out: IC50 (µM) hHDAC6
T1 construct: purchased BPS Bioscience 50056
T1 sequence (Q9UBN7 1-1215): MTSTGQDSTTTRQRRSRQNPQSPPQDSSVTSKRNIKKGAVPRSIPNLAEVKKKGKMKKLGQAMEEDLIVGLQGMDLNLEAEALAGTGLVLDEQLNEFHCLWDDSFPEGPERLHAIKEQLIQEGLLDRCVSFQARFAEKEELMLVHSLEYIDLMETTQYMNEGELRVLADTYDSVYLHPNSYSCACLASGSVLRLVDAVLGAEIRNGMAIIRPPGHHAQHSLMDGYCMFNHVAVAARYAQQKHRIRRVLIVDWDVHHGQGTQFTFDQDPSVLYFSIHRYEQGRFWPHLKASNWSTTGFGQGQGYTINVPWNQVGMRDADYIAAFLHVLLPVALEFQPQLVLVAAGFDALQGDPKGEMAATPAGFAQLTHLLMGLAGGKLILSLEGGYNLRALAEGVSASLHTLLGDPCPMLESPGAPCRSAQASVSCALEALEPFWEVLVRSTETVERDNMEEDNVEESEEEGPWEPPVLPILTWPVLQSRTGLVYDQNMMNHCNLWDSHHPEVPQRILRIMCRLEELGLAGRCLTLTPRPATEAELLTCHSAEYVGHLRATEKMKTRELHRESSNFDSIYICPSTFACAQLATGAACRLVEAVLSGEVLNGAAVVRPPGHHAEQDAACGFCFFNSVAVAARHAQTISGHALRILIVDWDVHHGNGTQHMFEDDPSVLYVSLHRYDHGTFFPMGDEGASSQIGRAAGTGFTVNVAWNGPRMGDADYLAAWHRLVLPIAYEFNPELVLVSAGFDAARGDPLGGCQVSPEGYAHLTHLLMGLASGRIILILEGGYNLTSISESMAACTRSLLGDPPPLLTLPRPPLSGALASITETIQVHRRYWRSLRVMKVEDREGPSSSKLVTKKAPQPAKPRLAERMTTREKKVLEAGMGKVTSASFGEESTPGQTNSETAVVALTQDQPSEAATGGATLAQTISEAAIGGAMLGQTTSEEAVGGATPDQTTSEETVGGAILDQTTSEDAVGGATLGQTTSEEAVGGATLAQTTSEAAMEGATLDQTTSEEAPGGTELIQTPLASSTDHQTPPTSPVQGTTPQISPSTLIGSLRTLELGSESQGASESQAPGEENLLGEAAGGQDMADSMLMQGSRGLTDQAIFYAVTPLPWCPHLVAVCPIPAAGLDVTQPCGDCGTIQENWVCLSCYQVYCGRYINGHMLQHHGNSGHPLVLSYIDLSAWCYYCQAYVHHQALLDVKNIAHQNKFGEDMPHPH
Experimental: Further experiments were also carried out to evaluate the inhibitory activities of test compounds on selected HDAC isoforms. […] Following an incubation of 15 min at RT, fluorescence was measured in an EnSight multimodal plate reader (PerkinElmer, Boston, MA, USA) with an excitation wavelength of 360 nm and an emission wavelength of 450 nm.

MCF-7 cells = assay: In vitro growth inhibition (resazurin, 72 h), MCF-7; assay type: cell-based; settings: Homo sapiens, MCF7, mean ± SE
MDA-MB-231 cells = assay: In vitro growth inhibition (resazurin, 72 h), MDA-MB-231; assay type: cell-based; settings: Homo sapiens, mean ± SE
HeLa cells = assay: In vitro growth inhibition (resazurin, 72 h), HeLa; assay type: cell-based; settings: Homo sapiens, concentration inhibiting tumor cell proliferation by 50%, mean ± SE
HT-29 cells [1] = assay: In vitro growth inhibition (resazurin, 72 h), HT-29; assay type: cell-based; settings: Homo sapiens, mean ± SE
bovine brain tubulin = assay: Inhibition of tubulin polymerization (turbidimetric); assay type: biochemical; settings: tubulin at 10 μM; 20 min incubation at 30 °C; read-out: Tubulin Assembly IC50 ± SD
Experimental: (§1) Bovine brain tubulin was purified as described previously. To evaluate the effects of the compounds on tubulin assembly in vitro [77], varying concentrations were preincubated with 10 μM tubulin in 0.8 M monosodium glutamate (pH 6.6) at 30 °C, and the reaction mixtures were then cooled to 0 °C. After addition of GTP, the mixtures were transferred to 0 °C cuvettes in Beckman Coulter (Brea, CA, USA) DU-7400/DU-7500 recording spectrophotometers equipped with electronic temperature controllers and were warmed to 30 °C, and the assembly of tubulin was observed turbidimetrically. […] Inhibition of colchicine binding to tubulin was measured as described before, except that the reaction mixtures contained 0.5 μM tubulin and 5 μM each of [^3H]colchicine and test compound. Only one DEAE-cellulose filter was used per sample, and filtration was via gravity.

[2] = system: tubulin (colchicine site); assay: Inhibition of [3H]colchicine binding to tubulin; design: species or system bovine; settings: tubulin 0.5 µM, [3H]colchicine 5 µM, tested compound 5 µM
Experimental: as §1

A549 cells = assay: In vitro growth inhibition (resazurin, 72 h), A549; assay type: cell-based; settings: Homo sapiens, mean ± SE
[3] = system: panel of five human cancer cell lines (HeLa, MDA-MB-231, A549, HT-29, MCF-7); assay: In vitro growth inhibition, range over the panel of five cancer cell lines
Experimental: All the cell lines were purchased from the American Type Culture Collection (ATCC, Manassas, VA, USA). Drug stock solutions were prepared for each compound by dissolving them in DMSO at 10 mM.
Cancer cells were seeded in tissue treated, flat bottom, 384-well plates (Corning, Corning, NY, USA) according to their optimal density, in 27 μL of complete medium per well, using a Microlab STAR 96-CORE liquid handling system (Hamilton Bonaduz, Bonaduz, Switzerland) as described previously [75]. Each compound was tested in a 6-points 2-fold dose–response curve, and each dose was tested in duplicate within each plate, in three independent experiments. The final concentration of DMSO in the wells never exceeded 0.1%, which was the maximum concentration.
Only plates with acceptable Z-prime quality metrics (Z′ > 0.6) were further analyzed for the drug screening. Raw data were normalized according to the following equation: cell viability (%) = (x − POS)/(NEG − POS) × 100, where x is the relative fluorescence units (RFU) collected from each single well, NEG is the mean of intraplate negative controls (DMSO, corresponding to 100% cell viability), and POS is the mean of intraplate positive controls (Bortezomib 1 μΜ, equal to 0% cell viability).

HT-29 cells [4] = assay: Cell cycle analysis (PI, flow cytometry); assay type: cell-based, human; settings: 250 nM for 24 h (figure legend)
Experimental: HT29 cells were treated with the indicated compounds for 24 h and then harvested and fixed in 70% ice-cold ethanol for 24 h. The cells were next treated with a 0.1% v/v solution of Triton X-100 in phosphate buffered saline (PBS) containing 10 μg/mL RNAse A and 20 μg/mL PI. The cells were incubated at room temperature for 30 min and then analyzed on a BD FACS Celesta^TM Flow Cytometer (BD Bioscience, Franklin Lakes, NJ, USA) in the FL3 channel. DNA histograms were analyzed using FlowJo_v10.7.1 software (BD Bioscience, Franklin Lakes, NJ, USA).

HT-29 cells [5] = assay: Annexin V-PI flow cytometric analysis of apoptosis, HT-29; assay type: cell-based, human; settings: 96 h
Experimental: The quantification of apoptosis induced by the test compounds was carried out with flow cytometric analysis using the Annexin-V Fluos kit (Roche Diagnostics, Milan, Italy) following the manufacturer’s instructions. Cancer cells treated with the test compounds for the indicated time points and concentrations were then labeled with annexin V/FITC and PI and analyzed with BD FACS Celesta^TM Flow Cytometer (BD Bioscience, Franklin Lakes, NJ, USA) using the FL1 and FL3 channel, respectively, and FlowJo_v10.7.1 software.

[6] = read-out: IC50 values, range or bound over the cancer cell line panel

Structure (SMILES) | IC50 (human recombinant HDAC6) [µM] | IC50 (MCF-7 cells) [nM] | IC50 (MDA-MB-231 cells) [nM] | IC50 (HeLa cells) [nM] | IC50 (HT-29 cells [1]) [nM] | IC50 (bovine brain tubulin) [nM] | Colchicine Binding % Inhibition ± SD [2] [%] | melting point [°C] | IC50 (A549 cells) [nM] | IC50 [3, 6] [nM] | IC50 ([3]; read-out: IC50 values, range over the cancer cell line panel) [nM] | IC50 (µM) hHDAC6 (human recombinant HDAC6) | Percentage of HT-29 cells in G1 phase (HT-29 cells [4]) [%] | Percentage of HT-29 cells in G2/M phase (HT-29 cells [4]) [%] | Percentage of HT-29 cells in S phase (HT-29 cells [4]) [%] | induction of apoptosis / cell death (annexin V/PI), in words (HT-29 cells [5])
COc1cc2oc(C(=O)c3ccc(OC)c(OC)c3)c(C)c2cc1/C=C/C(=O)NO [Compound 6b, (E)-3-(2-(3,4-Dimethoxybenzoyl)-6-methoxy-3-methylbenzofuran-5-yl)-N-hydroxyacrylamide] | > 30 | 40 ± 4 | 72.6 ± 5.03 | 36.8 ± 4.13 | 401 ± 2.03 | 1100 ± 200 | 41 ± 5 | 198 to 199 | 187 ± 1.02 |  |  |  |  |  |  | 
COc1ccc(C(=O)c2oc3cc(OC)c(/C=C/C(=O)NO)cc3c2C)cc1 [Compound 6d, (E)-N-Hydroxy-3-(6-methoxy-2-(4-methoxybenzoyl)-3-methylbenzofuran-5-yl)acrylamide] | 12.6 ± 0.8 | 59 ± 10 | 322 ± 12.4 | 47.6 ± 1.22 | 881 ± 8.23 | 1700 ± 100 | 27 ± 4 | 168 to 170 | 222 ± 1.09 |  |  |  |  |  |  | 
COc1cc(C(=O)c2oc3ccc(/C=C/C(=O)NO)cc3c2C)cc(OC)c1OC [Compound 6h, (E)-N-Hydroxy-3-(3-methyl-2-(3,4,5-trimethoxybenzoyl)benzofuran-5-yl)acrylamide] |  | > 10000 | > 10000 | > 10000 | > 10000 |  |  | 188 to 190 | > 10000 | > 10000 |  |  |  |  |  | 
C#Cc1cc2c(C)c(C(=O)c3cc(OC)c(OC)c(OC)c3)oc2cc1OC [Compound 8, (5-ethynyl-6-methoxy-3-methyl-benzofuran-2-yl)-(3,4,5-trimethoxyphenyl)methanone] |  |  | 81.2 ± 6 | 18.2 ± 0.02 | 207 ± 14 |  |  | 186 to 188 | 122 ± 8.6 |  | 18 to 207 |  |  |  |  | 
COc1cc2oc(C(=O)c3ccc(OC)c(OC)c3)c(C)c2cc1C#CC(=O)NO [Compound 11b, 3-[2-(3,4-Dimethoxybenzoyl)-6-methoxy-3-methyl-1-benzofuran-5-yl]-N-hydroxyprop-2-ynamide] |  | > 10000 | 377 ± 1.09 | 69.4 ± 1.45 | 2.16 ± 0.86 | 2700 ± 70 | 30 ± 2 | 276 to 277 | 972 ± 7.47 |  |  |  |  |  |  | 
COc1cc(OC)cc(C(=O)c2oc3cc(OC)c(C#CC(=O)NO)cc3c2C)c1 [Compound 11c, 3-[2-(3,5-Dimethoxybenzoyl)-6-methoxy-3-methyl-1-benzofuran-5-yl]-N-hydroxyprop-2-ynamide] | 13.8 ± 0.8 | 20 ± 0.7 | 43.9 ± 3 | 7.3 ± 0.03 | 96.5 ± 2.45 | 560 ± 60 | 82 ± 1 | 248 to 250 | 45.3 ± 2.93 |  |  |  |  |  |  | 
COc1ccc(C(=O)c2oc3cc(OC)c(C#CC(=O)NO)cc3c2C)cc1 [Compound 11d, N-Hydroxy-3-[6-methoxy-2-(4-methoxybenzoyl)-3-methyl-1-benzofuran-5-yl]prop-2-ynamide] |  |  | 4.09 ± 0.06 | 1.43 ± 0.67 | > 10000 |  |  | 222 to 224 | 5.07 ± 0.22 | 1500 to 10000 |  |  |  |  |  | 
COc1cccc(C(=O)c2oc3cc(OC)c(C#CC(=O)NO)cc3c2C)c1 [Compound 11e, N-Hydroxy-3-[6-methoxy-2-(3-methoxybenzoyl)-3-methyl-1-benzofuran-5-yl]prop-2-ynamide] | > 30 | 15 | 96.7 ± 1.65 | 8.4 ± 0.98 | 4.89 ± 0.03 | 420 ± 30 | 81 ± 3 |  | 94.4 ± 3.03 |  |  | does not show any activity at the highest concentration tested |  |  |  | 
COc1cc2oc(C(=O)c3ccccc3OC)c(C)c2cc1C#CC(=O)NO [Compound 11f, N-Hydroxy-3-[6-methoxy-2-(2-methoxybenzoyl)-3-methyl-1-benzofuran-5-yl]prop-2-ynamide] |  | 240 ± 10 | 345 ± 4.03 | 60.5 ± 2.26 | 4568 ± 21.4 | 5400 ± 100 | 20 ± 2 | 243 to 245 | 276 ± 6.74 |  |  |  |  |  |  | 
COc1cc2oc(C(=O)c3ccccc3)c(C)c2cc1C#CC(=O)NO [Compound 11g, 3-(2-Benzoyl-6-methoxy-3-methyl-benzofuran-5-yl)prop-2yne hydroxamic acid] |  |  | 101 ± 0.03 | 15.2 ± 0.02 | 1.58 ± 0.06 |  |  | 205 to 206 | 206 ± 2.92 |  |  |  |  |  |  | 
COc1cc(C(=O)c2oc3ccc(C#CC(=O)NO)cc3c2C)cc(OC)c1OC [Compound 11h, 3-[3-Methyl-2-(3,4,5-trimethoxybenzoyl)benzofuran-5-yl]prop-2-yne hydroxamic acid] |  | > 10000 | > 10000 | > 10000 | > 10000 |  |  | 254 to 256 | > 10000 | > 10000 |  |  |  |  |  | 
CC(/C=C/C(=O)NO)=C\[C@@H](C)C(=O)c1ccc(N(C)C)cc1 [TSA, Trichostatin, reference compound] |  |  |  |  |  |  |  |  |  |  |  |  | 43.90 | 38.65 | 17.44 | sensitive only to the higher dose
